# Results from paper PMC3983056 (PLoS Pathogens, 2014).
# Where “and” joins values, the source holds several entries; their conditions need not be identical. Identical values can stand only once.
# Experiments:
# [1] = system: PBMC cultures from HIV-infected patients; experiment: Cytokine induction in PBMC cultures; assay type: cell-based, human; conditions: RMD treatment, data not shown
# Text: HIV latency reversing agents that would be suitable for the therapeutic use in vivo should not induce non-specific immune activation.
# [2] = Clinical systemic exposure; assay type: in vivo, human
# [3] = Cell culture medium protein binding by equilibrium dialysis, HPLC/mass spectrometry; assay type: in vitro ADME
# [4] = system: HIV gag-pol RNA from resting CD4 T cells of a cART-suppressed patient; experiment: Single-genome sequencing of HIV RNA in culture supernatants; assay type: cell-based; conditions: 2.5 nM RMD, continuous, day 7
# Text: In parallel, we assessed the sequence diversity of HIV proviruses integrated in genomic DNA of resting CD4 T cells from the same culture.
# Figure 8 Phylogenetic analysis of HIV sequences expressed ex vivo following the latency reversal. […] Single-genome sequencing was used to analyze patient HIV proviral DNA and plasma RNA at the initiation of treatment (day 0), together with the ex vivo induced HIV RNA in cell culture supernatants at the end of treatment (day 7). […] Identified HIV DNA and RNA sequences were aligned and the phylogenetic tree was constructed using Clustal W and MEAG5.
# Single-genome sequencing of a portion of HIV-1 gag-pro-pol amplified from cell culture supernatants or cellular DNA extracts was performed as previously described [34]–[36]. Sequences were aligned using ClustalW and neighbor-joining phylogenetic analysis was performed using MEGA5. Trees were rooted on the subtype B consensus sequence (www.hiv.lanl.gov).
# [5] = system: total class I and II HDAC enzyme activity in resting CD4 T cells; conditions: pulse RMD 4 hours, VOR 24 hours, PNB 24 hours, 6 to 48 hours
# Procedure: Resting CD4 T cells obtained from HIV-infected patients on suppressive cART were incubated with serial dilutions of HDACi in 96-well plates at 10,000 cells/well for indicated time and then lysed by repeated freezing and thawing. Total cellular HDAC activity was measured using the HDAC-Glo I/II assay kit (Promega) according to the manufacturer's protocol.
# [6] = system: HIV expressing a luciferase reporter gene (NL4-3-Luc) in latently infected primary CD4 T cells; experiment: microbe, parasite or virus in culture; assay type: cell-based; conditions: Human immunodeficiency virus 1, NL43, CD4+ T, 48 h, continuous 48 hours, cells from three healthy donors, mean ± SD
# Text: To assess clinically tested HDACi for their ability to activate HIV from latency, we first employed a previously described in vitro HIV latency model, [30] with several modifications to increase the sensitivity of detection. The assay involves freshly isolated naïve CD4 T cells from healthy donors polarized to a Th0 phenotype, which mimics memory CD4 T cells. These Th0 cells are then infected with HIV expressing a luciferase reporter gene and cultured for an additional 7 to 10 days until a latent infection is established.
# Total peripheral blood mononuclear cells (PBMCs) were obtained from healthy HIV-negative donors by leukapheresis (AllCells, Inc, Emeryville, CA). […] Purified naive CD4+ T cells were activated by incubation with anti-CD3/CD28 magnetic Dynabeads (1 bead: 2 cells ratio, Life Technologies), 1 µg/ml anti-IL-4 (R&D Systems, Minneapolis, MN), 2 µg/ml anti-IL-12p70 antibodies (R&D Systems), and 10 ng/ml TGF-β (R&D Systems) for 3 days, [59]. Following the removal of anti-CD3/CD28 beads and antibodies, cells were maintained in 30 U/ml IL-2 (Life Technologies) for 2 days. Cells were then infected with NL4.3-Luc in the presence of 50 µg/ml DEAE for 3 hours. Cells were maintained in the continued presence of 30 U/ml IL-2 throughout the infection and subsequent rest period with culture medium with fresh IL-2 replaced every 2–3 days. Seven days post-infection, 20 µl of latently infected cells were dispensed into 384 well plates using a MicroFlo dispenser (Biotek Insturments, VT) at 10,000 cells/well containing 100 nl of compound solutions delivered by the Echo acoustic-based liquid dispenser (Labcyte, Sunnyvale, CA). After a 48-hour incubation, 16 µl/well BriteGlo (Promega, Madison, WI) was added and luminescence measured using the Envision plate reader (Perkin Elmer, Waltham, MA). Compound-associated cytotoxicity was determined in latently infected cells in parallel with the virus activation assay. Cells were incubated with compounds for 48 hours at 37°C, and cell viability was determined using Cell Titer Glo reagent (Promega).
# [7] = biological target: T1, human HDAC-4 (Homo sapiens, UniProt P56524); experiment: HDAC inhibition assay; assay type: biochemical
# T1 construct: purchased Reaction Biology Corporation (Malvern, PA)
# Procedure: (§1) Determination of HDACi potency against individual HDAC enzymes was performed at Reaction Biology Corporation (Malvern, PA). In brief, human HDAC-1 to -11 enzymes were incubated with serial dilutions of HDACi and fluorogenic peptide substrates (50 µM) in a 96-well format assay. […] Fluorogenic peptide Boc-Lys(trifluoroacetyl)-AMC was used as a substrate for HDAC enzymes 4, 5, 7, and 9.
# [8] = biological target: T2, human HDAC-1 (Homo sapiens, UniProt Q13547); experiment: HDAC inhibition assay; assay type: biochemical
# T2 construct: purchased Reaction Biology Corporation (Malvern, PA)
# Procedure: as §1
# [9] = biological target: T3, human HDAC-10 (Homo sapiens, UniProt Q969S8); experiment: HDAC inhibition assay; assay type: biochemical
# T3 construct: purchased Reaction Biology Corporation (Malvern, PA)
# Procedure: as §1
# [10] = system: HIV p24 antigen in latently infected CD4 T-cell cultures; experiment: Flow cytometry analysis of p24 expression in the in vitro latency model; assay type: cell-based; conditions: for cells expressing p24 antigen: 48 hours, live cell gate
# Procedure: Seven days post-infection, cells infected with NL4-3-Luc virus were stimulated for 48 hours with test compounds. Cells were stained with fixable viability dye v450 (eBioscience, San Diego, CA) in phosphate buffered saline (PBS) +2% FBS for 30 minutes at 4°C. Cells were fixed with IC Fixation Buffer (eBioscience) for 20 minutes at room temperature in the dark followed by treatment with a permeabilization buffer (eBioscience) for 30 minutes at 4°C. […] The cells were analyzed on a LSR Fortessa (BD Biosciences, San Jose, CA) and collected data were processed using a FlowJo Analysis Software (TreeStar, Ashland, OR).
# [11] = system: latent HIV in memory CD4 T cells from HIV-infected patients on suppressive cART; experiment: Ex vivo activation of HIV transcription, cell-associated HIV RNA, memory CD4 T cells; assay type: cell-based; conditions: for HIV RNA avg: Figure 2A, 40 nM RMD, one value per donor
# Procedure: To examine the kinetics of HIV induction, we analyzed cell-associated viral RNA levels at 6, 12, 24, and 48 hours after treatment initiation.
# Lysates were filtered through a Qiashredder (Qiagen).
# [12] = biological target: T4, human HDAC-7 (Homo sapiens, UniProt Q8WUI4); experiment: HDAC inhibition assay; assay type: biochemical
# T4 construct: purchased Reaction Biology Corporation (Malvern, PA)
# [13] = system: resting CD4 T cells from cART-suppressed HIV-infected patients; experiment: Cell activation analysis by flow cytometry, isolated resting CD4 T cells; assay type: cell-based, human; conditions: 4-hour pulse RMD
# Procedure: For cell activation analysis, either complete PBMC cultures or resting CD4+ T cells isolated from HIV-infected cART-suppressed patients were incubated with the tested agents under specified conditions and were stained with relevant antibodies. All antibodies were purchased from BD Biosciences and included Alexa Fluor 700-labeled antibody to CD4, APC-H7-labeled antibody to CD8, PE-Cy7 -labeled antibody to CD19, PE-labeled antibody to CD69, APC-labeled antibody to CD25, and V450-labeled antibody to HLA-DR. Live cells were gated by forward and side scatter and exclusion of the dead cells by Live/Dead Fixable Aqua Stain (Invitrogen). Marker staining was assessed by flow cytometry analysis on a LSR Fortessa with data processing using FlowJo software.
# The surface expression of CD25 and CD69 in viable CD4 cells was analyzed by flow cytometry. Data are mean ± SD of two independent experiments performed with cells isolated from two HIV-infected patients on suppressive cART.
# T1 sequence (P56524 whole entry): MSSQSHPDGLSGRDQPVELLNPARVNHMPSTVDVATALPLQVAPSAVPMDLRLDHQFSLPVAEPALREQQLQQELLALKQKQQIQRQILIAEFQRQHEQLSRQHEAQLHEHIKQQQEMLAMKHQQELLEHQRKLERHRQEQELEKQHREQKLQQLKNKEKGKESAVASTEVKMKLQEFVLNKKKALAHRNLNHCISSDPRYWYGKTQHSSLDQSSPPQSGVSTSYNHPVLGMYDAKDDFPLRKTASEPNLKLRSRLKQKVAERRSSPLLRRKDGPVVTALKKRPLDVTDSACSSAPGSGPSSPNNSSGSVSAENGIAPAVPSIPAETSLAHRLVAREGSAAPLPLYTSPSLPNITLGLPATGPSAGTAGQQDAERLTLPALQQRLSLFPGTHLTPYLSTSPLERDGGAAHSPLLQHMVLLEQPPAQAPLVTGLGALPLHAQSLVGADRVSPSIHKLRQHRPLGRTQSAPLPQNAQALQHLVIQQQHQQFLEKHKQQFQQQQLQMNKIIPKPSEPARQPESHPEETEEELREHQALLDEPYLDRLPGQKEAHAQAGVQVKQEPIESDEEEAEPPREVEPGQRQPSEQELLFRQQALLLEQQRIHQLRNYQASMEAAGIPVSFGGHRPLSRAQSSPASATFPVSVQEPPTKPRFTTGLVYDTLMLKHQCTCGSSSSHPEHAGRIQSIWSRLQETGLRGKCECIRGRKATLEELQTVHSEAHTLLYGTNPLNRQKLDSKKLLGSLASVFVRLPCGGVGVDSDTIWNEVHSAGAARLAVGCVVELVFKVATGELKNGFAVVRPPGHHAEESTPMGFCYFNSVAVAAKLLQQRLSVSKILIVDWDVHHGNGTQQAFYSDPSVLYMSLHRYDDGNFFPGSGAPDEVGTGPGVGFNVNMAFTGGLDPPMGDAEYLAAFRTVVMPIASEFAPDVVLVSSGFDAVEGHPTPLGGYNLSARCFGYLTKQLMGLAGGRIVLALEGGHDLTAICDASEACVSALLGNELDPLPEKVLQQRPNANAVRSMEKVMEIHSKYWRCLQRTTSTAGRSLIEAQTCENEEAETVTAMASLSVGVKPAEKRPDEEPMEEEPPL
# T2 sequence (Q13547 whole entry): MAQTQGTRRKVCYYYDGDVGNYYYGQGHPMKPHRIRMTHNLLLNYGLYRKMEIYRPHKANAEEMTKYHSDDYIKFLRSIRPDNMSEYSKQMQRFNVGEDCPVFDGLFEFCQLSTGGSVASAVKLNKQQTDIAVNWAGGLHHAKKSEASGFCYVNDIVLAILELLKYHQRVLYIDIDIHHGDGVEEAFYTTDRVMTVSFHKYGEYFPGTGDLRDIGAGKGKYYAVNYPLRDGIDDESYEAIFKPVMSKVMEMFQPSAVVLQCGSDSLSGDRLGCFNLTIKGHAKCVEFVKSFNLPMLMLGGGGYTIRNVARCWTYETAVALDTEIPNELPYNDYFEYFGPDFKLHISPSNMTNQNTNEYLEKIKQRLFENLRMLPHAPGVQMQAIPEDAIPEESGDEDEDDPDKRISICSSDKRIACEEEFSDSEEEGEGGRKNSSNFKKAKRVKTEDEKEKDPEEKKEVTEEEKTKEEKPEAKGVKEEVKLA
# T3 sequence (Q969S8 whole entry): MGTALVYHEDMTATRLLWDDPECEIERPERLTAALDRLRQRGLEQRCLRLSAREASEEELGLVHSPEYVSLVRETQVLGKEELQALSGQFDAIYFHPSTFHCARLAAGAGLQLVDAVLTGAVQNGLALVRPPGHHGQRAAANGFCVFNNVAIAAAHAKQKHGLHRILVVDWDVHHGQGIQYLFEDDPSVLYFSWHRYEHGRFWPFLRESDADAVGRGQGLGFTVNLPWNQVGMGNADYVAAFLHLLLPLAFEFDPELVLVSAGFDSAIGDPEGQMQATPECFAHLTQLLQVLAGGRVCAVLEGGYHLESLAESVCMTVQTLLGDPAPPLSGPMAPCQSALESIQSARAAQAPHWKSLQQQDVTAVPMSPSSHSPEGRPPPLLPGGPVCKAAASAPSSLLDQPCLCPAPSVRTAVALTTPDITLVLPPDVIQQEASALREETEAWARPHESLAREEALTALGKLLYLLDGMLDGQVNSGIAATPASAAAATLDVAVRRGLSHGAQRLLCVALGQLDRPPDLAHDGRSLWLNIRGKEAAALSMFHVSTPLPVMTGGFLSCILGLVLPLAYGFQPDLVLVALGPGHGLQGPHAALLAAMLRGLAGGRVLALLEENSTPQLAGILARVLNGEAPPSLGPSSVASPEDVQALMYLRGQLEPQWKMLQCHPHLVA
# T4 sequence (Q8WUI4 whole entry): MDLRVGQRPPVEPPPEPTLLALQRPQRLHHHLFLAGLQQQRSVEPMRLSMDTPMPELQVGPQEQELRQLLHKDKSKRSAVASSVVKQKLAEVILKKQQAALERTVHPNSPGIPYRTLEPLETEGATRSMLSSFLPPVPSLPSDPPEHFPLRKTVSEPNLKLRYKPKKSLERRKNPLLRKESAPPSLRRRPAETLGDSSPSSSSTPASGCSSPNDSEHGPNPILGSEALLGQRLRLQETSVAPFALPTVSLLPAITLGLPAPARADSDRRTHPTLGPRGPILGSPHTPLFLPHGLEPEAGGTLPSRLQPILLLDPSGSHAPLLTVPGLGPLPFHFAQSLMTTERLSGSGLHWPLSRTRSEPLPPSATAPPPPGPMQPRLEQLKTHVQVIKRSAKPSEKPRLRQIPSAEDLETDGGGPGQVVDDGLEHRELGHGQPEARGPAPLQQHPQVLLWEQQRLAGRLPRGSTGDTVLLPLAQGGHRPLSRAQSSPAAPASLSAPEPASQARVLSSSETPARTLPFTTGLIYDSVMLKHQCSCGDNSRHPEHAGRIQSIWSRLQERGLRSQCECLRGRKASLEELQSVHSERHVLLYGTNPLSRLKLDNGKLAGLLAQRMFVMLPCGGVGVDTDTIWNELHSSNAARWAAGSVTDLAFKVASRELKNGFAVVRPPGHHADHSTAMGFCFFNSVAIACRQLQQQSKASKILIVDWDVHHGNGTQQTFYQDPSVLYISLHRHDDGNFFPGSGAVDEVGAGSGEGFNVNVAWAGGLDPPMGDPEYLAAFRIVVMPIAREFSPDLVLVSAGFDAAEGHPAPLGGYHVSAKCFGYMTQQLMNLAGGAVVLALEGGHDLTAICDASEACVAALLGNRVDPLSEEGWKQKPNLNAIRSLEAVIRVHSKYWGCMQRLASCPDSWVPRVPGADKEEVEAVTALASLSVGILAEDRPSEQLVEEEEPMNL
smiles,measurement,setting,value
"C/C=C1\NC(=O)[C@H]2CSSCC/C=C/[C@H](CC(=O)N[C@H](C(C)C)C(=O)N2)OC(=O)[C@H](C(C)C)NC1=O [RMD, romidepsin]","induction of IFN-α, IFN-γ, TNF-α, TGF-β, IL-2, IL-7 or other cytokines",[1],no significant induction
same,"Free drug concentration, clinical systemic exposure","[2]; at Cmax, RMD 14 mg/m^2 i.v., VOR 400 mg p.o.",0.056 µM
same,Fraction of clinical exposure,"[2]; ratio of free drug concentration in cell culture media (RMD 40 nM, VOR 1,000 nM) and in serum of clinically treated patients",39%
same,"Free drug concentration, ex vivo cell culture exposure","[3]; RMD 40 nM, VOR 1,000 nM in culture",0.022 µM
same,fraction unbound,"[3]; cell culture medium, equilibrium dialysis, read-out: Cell culture medium protein binding (free fraction)",0.55
same,sequences of HIV RNA collected in culture supernatants,[4],4
same,persistence of inhibition of cell-associated HDAC activity,[5],persisted throughout the 48-hour incubation period
same,EC50,[6],4.5 ± 1 nM
same,IC50,[7],314 nM
same,IC50,[8],0.102 nM
same,IC50,[9],0.133 nM
same,cells expressing p24 antigen,[10]; 5 nM RMD,3.3%
same,cells expressing p24 antigen,[10]; 80 nM RMD,5.5%
same,time course of p24 expression,"[10]; 24 to 72 hours, 40 nM RMD or anti-CD3/CD28 antibodies, in presence of antiretrovirals",continued to increase for 72 hours
same,HIV RNA avg,[11]; 6hr,164 copies/mil cells and 924 copies/mil cells and 4345 copies/mil cells and 5330 copies/mil cells and 714 copies/mil cells
same,HIV RNA avg,[11]; 12hr,222 copies/mil cells and 562 copies/mil cells and 5634 copies/mil cells and 3147 copies/mil cells and 922 copies/mil cells
same,HIV RNA avg,[11]; 24hr,702 copies/mil cells and 1193 copies/mil cells and 7541 copies/mil cells and 2530 copies/mil cells and 1320 copies/mil cells
same,HIV RNA avg,[11]; 48hr,2153 copies/mil cells and 3839 copies/mil cells and 30568 copies/mil cells and 3060 copies/mil cells and 1406 copies/mil cells
same,increase in intracellular HIV RNA levels versus vehicle,"[11]; memory CD4 T cells, 40 nM RMD for 4 hours, peak between 24 and 48 hours",6 fold
same,IC50,[12],3400 nM
same,fraction of CD69-positive cells,[13],minimal increases
